Data: ChEMBL document CHEMBL1201862, “PubChem BioAssay data set” (2004)
Several values for one entry are separate records, joined by “and”; a condition that tells them apart may be missing. Equal entries are not always repeated. Activity calls are given as the source filed them.

What was measured:
[1] = biological target: T1, Replicative DNA helicase DnaB (Mycobacterium tuberculosis, UniProt P9WMR3); test: DnaB intein splicing inhibitors, dose response, biochemical, cell-free fluorescence (AID 449749); assay type: functional
T1 sequence (P9WMR3 whole entry): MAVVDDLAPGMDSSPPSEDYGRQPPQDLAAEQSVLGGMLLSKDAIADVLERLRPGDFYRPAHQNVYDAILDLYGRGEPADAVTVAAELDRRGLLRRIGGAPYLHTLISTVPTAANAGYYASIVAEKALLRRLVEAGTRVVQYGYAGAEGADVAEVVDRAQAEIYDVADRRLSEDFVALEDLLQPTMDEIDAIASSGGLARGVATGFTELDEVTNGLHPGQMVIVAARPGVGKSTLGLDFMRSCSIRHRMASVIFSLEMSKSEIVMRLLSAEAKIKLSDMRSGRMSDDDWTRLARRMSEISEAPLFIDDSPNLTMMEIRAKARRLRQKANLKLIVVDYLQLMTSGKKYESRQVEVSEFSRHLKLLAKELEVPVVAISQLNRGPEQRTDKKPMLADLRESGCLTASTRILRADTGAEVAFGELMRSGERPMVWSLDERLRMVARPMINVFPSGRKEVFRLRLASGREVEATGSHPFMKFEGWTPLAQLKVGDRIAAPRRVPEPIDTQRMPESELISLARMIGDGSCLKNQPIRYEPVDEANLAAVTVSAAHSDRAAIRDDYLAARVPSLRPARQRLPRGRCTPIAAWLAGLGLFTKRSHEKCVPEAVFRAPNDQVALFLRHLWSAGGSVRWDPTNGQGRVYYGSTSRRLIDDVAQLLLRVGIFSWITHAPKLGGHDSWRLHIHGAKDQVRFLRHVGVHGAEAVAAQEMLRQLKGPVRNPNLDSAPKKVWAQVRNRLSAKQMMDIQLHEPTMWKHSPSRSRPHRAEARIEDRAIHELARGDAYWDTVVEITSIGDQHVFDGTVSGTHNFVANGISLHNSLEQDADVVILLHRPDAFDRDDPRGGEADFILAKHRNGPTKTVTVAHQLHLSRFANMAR

[2] = reduction of Shn3 3'UTR-driven luciferase in osteoblasts – cell-based, Clone20 osteoblasts, firefly luciferase, cherry-picked, dose response (AID 624132); assay type: functional;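 also: firefly luciferase luminescence from reporter carrying the Shn3 3'UTR in osteoblasts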
CHO = CHO cell viability loss, potency – luminescence, cytotoxicity control for TLR9-MyD88 binding inhibitor project, dose response (AID 588339); assay type: functional, cell-based, hamster; details: Cricetulus griseus;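 also: CHO cells stably coexpressing TLR9 and MyD88 fusions from primary screen; compound exposure lasted 48 hours before viability readout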
[3] = loss of viability in HepG2 cells – cell-based, CellTiter-Glo, cherry-picked, cytotoxicity control for Shn3 inhibitor project, dose response (AID 624134); assay type: functional
[4] = non-specific 3'UTR reporter inhibition in Clone20-Shn3RL – cell-based, Renilla luciferase, cherry-picked, counter-screen for Shn3 inhibitor project, dose response (AID 624133); assay type: functional
Beta Lactamase = Beta Lactamase (Pseudomonas aeruginosa, UniProt Q932Y6); test: BLA reporter interference, concentration series – BLA reporter cells, FRET fluorescence, artefact control for TLR9-MyD88 binding inhibitor project, dose response (AID 588341); assay type: cell-based;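 also: cell based assay in CHO-K1 cells stably expressing beta-lactamase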
Fatty acid synthase [5] = biological target: T2, Fatty acid synthase (Homo sapiens, UniProt P49327); test: inhibition of human FAS-TE enzyme activity – biochemical, endpoint fluorescence intensity, uHTS hits, dose response (AID 624327); assay type: functional;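 also: fluorescence from hydrolysis of an O-methyl fluorescein acyl ester substrate by the enzyme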
Fatty acid synthase [6] = biological target: T2, Fatty acid synthase; test: inhibition of human FAS-TE enzyme activity – biochemical, kinetic fluorescence intensity, dose response (AID 624326); assay type: functional;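 also: rate of fluorescence rise from hydrolysis of a fluorogenic O-methyl fluorescein ester substrate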
Protein RecA = biological target: T3, Protein RecA (Mycobacterium tuberculosis, UniProt P9WHJ3); test: Fluorescence Cell-Free Homogeneous Dose Retest to Identify Inhibitors of RecA-Intein Splicing Activity. [Related pubchem assays (depositor defined):AID2097, AID2223, AID489010, AID492950]; assay type: functional
T3 sequence (P9WHJ3 whole entry): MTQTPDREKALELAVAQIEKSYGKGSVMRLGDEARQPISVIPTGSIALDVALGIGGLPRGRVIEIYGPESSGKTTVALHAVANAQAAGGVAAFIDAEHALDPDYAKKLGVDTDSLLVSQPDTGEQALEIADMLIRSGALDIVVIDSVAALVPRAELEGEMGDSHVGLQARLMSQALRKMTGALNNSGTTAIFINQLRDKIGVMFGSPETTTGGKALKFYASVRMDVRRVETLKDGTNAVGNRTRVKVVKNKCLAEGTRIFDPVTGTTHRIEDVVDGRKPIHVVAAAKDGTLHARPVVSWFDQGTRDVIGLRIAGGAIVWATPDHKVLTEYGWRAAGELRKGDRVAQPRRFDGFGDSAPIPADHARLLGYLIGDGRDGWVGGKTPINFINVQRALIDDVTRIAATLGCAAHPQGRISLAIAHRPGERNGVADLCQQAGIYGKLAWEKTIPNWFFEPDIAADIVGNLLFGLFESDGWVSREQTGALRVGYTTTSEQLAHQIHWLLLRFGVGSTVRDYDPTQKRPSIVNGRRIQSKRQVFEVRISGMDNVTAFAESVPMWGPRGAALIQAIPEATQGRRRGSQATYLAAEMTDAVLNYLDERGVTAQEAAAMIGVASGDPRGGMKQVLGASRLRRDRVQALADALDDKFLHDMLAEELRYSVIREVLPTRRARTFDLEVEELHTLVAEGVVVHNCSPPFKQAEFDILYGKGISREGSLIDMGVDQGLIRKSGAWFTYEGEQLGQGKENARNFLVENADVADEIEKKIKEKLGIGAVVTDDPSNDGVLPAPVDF

[7] = fluconazole-exposed Candida albicans growth modulators – fluorescence, retest, confirmation (AID 2467); assay type: functional, cell-based
INS1 = test: INS-1E survival protection against cytokine death – cell-based, luminescence, retest, dose response (AID 449756); assay type: functional; details: Rattus norvegicus;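 also: cell death triggered by IL-1 beta plus TNF-alpha plus IFN-gamma mixture; protective hits raise ATP signal compared with cytokine alone wells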
[8] = decrease of insulin promoter-GFP reporter – imaging, high-content screening, mouse beta cells (AID 1628); assay type: functional; details: MIN6
[9] = HIV-1 AD8 envelope cell-cell fusion blockers – cherry-pick, dose response (AID 652062); assay type: functional, cell-based;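 also: luciferase signal from cell-cell fusion driven by HIV-1 clade B AD8 Env; potency is for inhibitors of fusion seen as a drop in luminescence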
[10] = biological target: G-protein coupled receptor 55 (Homo sapiens, UniProt Q9Y2T6); test: selective activators of receptor GPR55 – imaging, U2OS cells, beta-arrestin-GFP redistribution, primary screen (AID 1961); assay type: functional
[11] = biological target: T4, Microphthalmia-associated transcription factor (Homo sapiens, UniProt O75030); test: reducers of TRPM1 reporter luminescence, concentration series – cell-based, SK-MEL-5, cherry-picked, set 3, MITF inhibitor project, dose response (AID 493073); assay type: functional;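 also: SK-MEL-5 melanoma cells with luciferase driven by the MITF target TRPM1 promoter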
T4 sequence (O75030 whole entry): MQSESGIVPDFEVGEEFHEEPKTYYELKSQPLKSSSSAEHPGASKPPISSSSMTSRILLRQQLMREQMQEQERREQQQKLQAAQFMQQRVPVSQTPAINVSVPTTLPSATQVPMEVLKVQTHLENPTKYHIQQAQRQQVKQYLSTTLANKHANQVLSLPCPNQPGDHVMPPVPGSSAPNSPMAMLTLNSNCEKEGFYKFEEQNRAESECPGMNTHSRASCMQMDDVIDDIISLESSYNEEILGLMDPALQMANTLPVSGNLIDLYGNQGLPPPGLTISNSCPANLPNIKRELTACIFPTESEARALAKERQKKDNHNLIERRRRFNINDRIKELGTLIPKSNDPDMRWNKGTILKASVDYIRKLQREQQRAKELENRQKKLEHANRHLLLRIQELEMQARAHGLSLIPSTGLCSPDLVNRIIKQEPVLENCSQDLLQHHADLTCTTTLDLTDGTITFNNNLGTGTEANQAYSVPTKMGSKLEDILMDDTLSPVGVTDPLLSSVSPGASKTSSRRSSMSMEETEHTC

[12] = Trypanosoma cruzi growth suppression in host cells – NIH3T3 host cells, beta-gal luminescence, confirmation (AID 2044); assay type: functional, cell-based;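 also: intracellular parasites grown in NIH/3T3 mouse fibroblasts as host cells; luminescent beta-galactosidase reporter signal from transgenic T. cruzi replicating inside host cells; inhibitors lower the luminescence signal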
X-box-binding protein 1 = biological target: T5, X-box-binding protein 1 (Homo sapiens, UniProt P17861); assay type: functional, Cricetulus griseus;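 also: confirmatory dose-response counter-screen serving a CHOP assay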
T5 sequence (P17861 whole entry): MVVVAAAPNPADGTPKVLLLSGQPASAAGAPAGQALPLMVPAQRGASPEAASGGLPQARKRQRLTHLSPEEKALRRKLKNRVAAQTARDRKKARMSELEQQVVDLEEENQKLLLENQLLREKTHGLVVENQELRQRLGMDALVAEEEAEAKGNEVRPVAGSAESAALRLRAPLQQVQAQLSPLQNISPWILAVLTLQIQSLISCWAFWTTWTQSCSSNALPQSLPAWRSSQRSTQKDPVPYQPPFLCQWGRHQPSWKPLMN

[13] = blockers of HIV-1 ZM109 envelope-driven cell-cell fusion – HeLa effector, CEM target cells, luciferase, cherry-pick, dose response (AID 652058); assay type: functional, cell-based;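 also: luciferase signal from HIV-1 Env mediated cell-cell fusion of effector and target cells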
[14] = off-target signal loss in HeLa-CEM21 co-culture – HeLa F-luc CTL cells, cherry-picked, counter-screen for HIV-1 Env fusion inhibitor project, dose response (AID 652040); assay type: functional, cell-based;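 also: potency for signal decrease marking cytotoxic or nonspecific inhibition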
[15] = viability loss in CEM21 cells – cell-based, CellTiter-Glo luminescence, cherry-picked, cytotoxicity control for viral fusion inhibitor project, dose response (AID 652042); assay type: functional;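 also: potency for signal decrease meaning cytotoxicity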
[16] = biological target: T6, Apoptotic protease-activating factor 1 (Homo sapiens, UniProt O14727); assay type: functional
T6 sequence (O14727 whole entry): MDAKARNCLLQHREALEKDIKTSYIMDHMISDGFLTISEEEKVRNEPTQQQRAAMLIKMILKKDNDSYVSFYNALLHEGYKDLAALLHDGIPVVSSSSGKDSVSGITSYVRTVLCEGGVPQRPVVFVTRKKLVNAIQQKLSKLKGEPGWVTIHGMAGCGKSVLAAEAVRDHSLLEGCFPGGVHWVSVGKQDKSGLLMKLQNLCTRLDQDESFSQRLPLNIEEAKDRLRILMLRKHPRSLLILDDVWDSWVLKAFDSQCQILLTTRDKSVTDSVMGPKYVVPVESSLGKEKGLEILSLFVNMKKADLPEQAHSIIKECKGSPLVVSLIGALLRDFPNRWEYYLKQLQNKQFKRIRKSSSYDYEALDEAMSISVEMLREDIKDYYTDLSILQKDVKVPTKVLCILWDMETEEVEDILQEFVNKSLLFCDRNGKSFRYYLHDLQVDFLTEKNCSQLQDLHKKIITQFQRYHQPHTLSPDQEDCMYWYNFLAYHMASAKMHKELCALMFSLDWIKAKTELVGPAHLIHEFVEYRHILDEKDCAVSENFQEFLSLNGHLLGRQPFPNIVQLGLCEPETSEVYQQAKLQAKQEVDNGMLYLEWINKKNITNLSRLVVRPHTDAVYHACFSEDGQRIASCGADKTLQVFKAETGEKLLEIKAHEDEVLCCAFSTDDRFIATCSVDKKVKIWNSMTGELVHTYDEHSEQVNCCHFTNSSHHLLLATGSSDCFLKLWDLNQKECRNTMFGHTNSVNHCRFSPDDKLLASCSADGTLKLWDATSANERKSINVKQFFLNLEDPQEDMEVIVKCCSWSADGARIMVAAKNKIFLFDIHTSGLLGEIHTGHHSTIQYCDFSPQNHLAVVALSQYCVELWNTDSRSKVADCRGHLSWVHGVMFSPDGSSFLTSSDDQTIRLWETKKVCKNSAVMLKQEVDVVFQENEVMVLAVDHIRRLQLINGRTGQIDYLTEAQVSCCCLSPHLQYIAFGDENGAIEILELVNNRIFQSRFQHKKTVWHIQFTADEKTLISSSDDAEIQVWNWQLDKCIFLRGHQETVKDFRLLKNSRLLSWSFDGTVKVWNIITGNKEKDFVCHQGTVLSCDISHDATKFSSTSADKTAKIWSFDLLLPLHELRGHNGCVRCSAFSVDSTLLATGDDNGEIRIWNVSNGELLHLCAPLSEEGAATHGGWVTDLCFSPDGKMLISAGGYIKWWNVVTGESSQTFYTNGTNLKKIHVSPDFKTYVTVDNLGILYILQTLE

[17] = NIH-3T3 fibroblast cytotoxicity, dose response, cytotoxicity control, cell-based, fluorescence, Alamar Blue, secondary assay (AID 2327); assay type: functional;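 also: NIH-3T3 mouse fibroblasts cultured with fluconazole at 8 µg/mL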
[18] = biological target: T7, Ubiquitin-conjugating enzyme E2 N (Homo sapiens, UniProt P61088); assay type: functional;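 also: Dose-response confirmation in a TR-FRET assay detecting UBC13-driven polyubiquitin chain formation, inhibition measured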
T7 sequence (P61088 whole entry): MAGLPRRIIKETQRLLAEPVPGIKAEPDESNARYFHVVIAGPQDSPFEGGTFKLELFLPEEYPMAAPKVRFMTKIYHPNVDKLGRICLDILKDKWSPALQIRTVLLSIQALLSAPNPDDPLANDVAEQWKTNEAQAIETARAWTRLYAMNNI

[19] = MIN6 cell viability loss – mouse insulinoma, cytotoxicity control, dose response (AID 2122); assay type: functional;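 also: confirmatory high-throughput counterscreen run to flag cytotoxic compounds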
A-375 = test: proliferation inhibition in MITF-low A375 cells – cell-based, cherry-pick samples, set 2, counter-screen for MITF modulator project, dose response (AID 540335); assay type: functional; details: Homo sapiens
[20] = blockers of HIV-1 envelope-mediated cell-cell fusion – cherry-pick, dose response (AID 652057); assay type: functional, cell-based

T2 sequence (P49327 whole entry): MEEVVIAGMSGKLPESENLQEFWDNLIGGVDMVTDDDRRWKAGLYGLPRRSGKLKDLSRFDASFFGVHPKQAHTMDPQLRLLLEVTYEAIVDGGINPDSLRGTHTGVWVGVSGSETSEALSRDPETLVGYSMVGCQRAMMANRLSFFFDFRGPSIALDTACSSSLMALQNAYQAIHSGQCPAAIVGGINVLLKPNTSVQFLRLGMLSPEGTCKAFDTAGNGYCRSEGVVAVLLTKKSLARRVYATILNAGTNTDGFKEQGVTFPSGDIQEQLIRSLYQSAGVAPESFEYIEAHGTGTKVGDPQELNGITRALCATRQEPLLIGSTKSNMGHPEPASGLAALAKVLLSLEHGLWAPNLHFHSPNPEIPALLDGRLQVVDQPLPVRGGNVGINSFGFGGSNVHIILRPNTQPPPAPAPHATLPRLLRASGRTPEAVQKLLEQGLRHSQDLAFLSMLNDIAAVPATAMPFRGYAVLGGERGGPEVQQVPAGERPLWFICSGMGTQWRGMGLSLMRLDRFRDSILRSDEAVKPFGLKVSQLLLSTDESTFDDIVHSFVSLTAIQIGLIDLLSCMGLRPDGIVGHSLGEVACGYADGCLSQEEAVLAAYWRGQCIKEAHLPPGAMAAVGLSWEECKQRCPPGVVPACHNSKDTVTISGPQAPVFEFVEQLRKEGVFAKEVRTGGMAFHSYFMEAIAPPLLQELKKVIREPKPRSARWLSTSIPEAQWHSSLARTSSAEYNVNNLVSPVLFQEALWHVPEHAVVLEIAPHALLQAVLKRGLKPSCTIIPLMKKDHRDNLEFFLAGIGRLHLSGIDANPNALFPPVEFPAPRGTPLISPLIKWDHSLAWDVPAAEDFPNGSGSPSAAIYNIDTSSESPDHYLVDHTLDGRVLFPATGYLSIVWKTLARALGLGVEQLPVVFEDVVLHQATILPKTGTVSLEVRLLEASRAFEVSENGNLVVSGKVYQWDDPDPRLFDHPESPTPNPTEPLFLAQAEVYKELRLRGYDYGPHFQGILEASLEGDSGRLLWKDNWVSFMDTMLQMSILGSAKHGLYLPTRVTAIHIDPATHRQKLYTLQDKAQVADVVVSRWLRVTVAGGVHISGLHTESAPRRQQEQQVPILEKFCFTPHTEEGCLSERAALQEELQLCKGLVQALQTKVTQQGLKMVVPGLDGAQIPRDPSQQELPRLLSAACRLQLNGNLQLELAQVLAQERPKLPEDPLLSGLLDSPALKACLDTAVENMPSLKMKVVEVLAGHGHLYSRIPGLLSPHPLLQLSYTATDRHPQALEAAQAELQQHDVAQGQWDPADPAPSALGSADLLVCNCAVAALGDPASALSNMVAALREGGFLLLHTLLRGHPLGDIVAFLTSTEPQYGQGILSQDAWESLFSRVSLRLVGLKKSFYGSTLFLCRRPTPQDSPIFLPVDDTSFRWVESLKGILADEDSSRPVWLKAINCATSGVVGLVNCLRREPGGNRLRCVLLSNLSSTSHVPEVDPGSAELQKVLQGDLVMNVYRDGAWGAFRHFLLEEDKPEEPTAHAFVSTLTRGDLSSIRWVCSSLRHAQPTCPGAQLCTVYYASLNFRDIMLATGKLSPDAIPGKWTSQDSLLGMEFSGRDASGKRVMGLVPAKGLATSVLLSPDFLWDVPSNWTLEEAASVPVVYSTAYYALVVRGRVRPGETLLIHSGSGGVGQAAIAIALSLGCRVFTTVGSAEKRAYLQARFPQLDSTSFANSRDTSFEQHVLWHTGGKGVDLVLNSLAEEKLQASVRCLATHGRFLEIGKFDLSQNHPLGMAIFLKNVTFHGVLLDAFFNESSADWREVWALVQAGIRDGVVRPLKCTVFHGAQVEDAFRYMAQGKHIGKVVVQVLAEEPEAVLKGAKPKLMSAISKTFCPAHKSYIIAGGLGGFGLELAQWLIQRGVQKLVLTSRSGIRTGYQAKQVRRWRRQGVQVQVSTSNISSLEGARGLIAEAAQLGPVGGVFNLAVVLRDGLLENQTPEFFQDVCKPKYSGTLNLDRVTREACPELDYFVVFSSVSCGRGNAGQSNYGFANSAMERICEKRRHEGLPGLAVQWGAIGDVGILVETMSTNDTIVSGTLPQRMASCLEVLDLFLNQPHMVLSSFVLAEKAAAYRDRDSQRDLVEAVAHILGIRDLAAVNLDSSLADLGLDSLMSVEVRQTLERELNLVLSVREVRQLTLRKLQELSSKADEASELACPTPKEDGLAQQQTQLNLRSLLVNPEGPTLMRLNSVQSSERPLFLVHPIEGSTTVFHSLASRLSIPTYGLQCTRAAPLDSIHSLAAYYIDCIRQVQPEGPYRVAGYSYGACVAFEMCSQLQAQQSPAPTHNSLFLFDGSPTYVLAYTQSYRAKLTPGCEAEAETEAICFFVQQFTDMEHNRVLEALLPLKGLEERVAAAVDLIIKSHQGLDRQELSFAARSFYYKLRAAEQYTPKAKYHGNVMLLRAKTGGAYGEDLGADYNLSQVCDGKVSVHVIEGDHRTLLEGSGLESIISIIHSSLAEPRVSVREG
Chain of Beta Lactamase (Q932Y6 whole entry): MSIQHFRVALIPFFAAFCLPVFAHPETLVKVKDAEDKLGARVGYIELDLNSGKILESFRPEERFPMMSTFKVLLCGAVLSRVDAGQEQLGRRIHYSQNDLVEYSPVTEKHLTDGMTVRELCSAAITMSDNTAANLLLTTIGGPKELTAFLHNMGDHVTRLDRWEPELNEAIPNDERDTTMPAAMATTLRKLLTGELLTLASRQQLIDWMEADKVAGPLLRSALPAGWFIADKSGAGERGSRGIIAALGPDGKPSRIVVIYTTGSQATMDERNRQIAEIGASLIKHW
Chain of G-protein coupled receptor 55 (Q9Y2T6 whole entry): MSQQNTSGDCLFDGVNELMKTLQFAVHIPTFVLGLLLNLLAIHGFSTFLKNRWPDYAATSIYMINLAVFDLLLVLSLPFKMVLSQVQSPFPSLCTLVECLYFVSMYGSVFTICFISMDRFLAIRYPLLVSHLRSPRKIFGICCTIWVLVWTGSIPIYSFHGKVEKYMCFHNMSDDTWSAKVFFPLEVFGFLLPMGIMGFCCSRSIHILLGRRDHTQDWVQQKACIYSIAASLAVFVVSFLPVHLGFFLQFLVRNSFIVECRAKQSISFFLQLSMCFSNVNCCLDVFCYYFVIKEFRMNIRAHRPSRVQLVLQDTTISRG

CCCC(=O)OCCNc1cc(Sc2nc3ccccc3[nH]2)c2nonc2c1[N+](=O)[O-]
AC50 [1]: 855 nM (active)
AC50 [2]: 6.63 µM (active)
IC50 (CHO): 4.59 µM (active)
AC50 [3]: 24.2 µM (active)
AC50 [4]: 8.96 µM (active)
IC50 (Beta Lactamase): 10.9 µM (inactive)
IC50 (Fatty acid synthase [5]): 2.2 µM (active)
IC50 (Fatty acid synthase [6]): 1.34 µM (active)
EC50 (Protein RecA): 657 nM (active)

Cc1ccccc1OCc1n(CC(=O)OC2CC(C)CCC2C(C)C)c2ccccc2[n+]1C.[Cl-] (stereo unspecified)
EC50 [7]: 693 nM (active)
AC50 (INS1): 3.39 µM (active)
IC50 [8]: 1.52 µM (active)
AC50 [9]: 7 µM (active)
EC50 [10]: > 32 µM (inactive)
AC50 [11]: 7.51 µM (active)
EC50 [12]: 684 nM (active) and 429 nM (active)
Absolute IC50 (XBP1) (X-box-binding protein 1): 10 µM
AC50 [13]: 8.94 µM (active)
AC50 [14]: 9.17 µM (active)
AC50 [15]: 4.93 µM (active)
IC50 [16]: 29.5 µM (active)
EC50 [17]: > 160 µM (inactive)
IC50 [18]: > 20 µM (inactive)
IC50 [19]: 1.95 µM (active)
AC50 (A-375): 19 µM (active)
AC50 [20]: 6.17 µM (active)
